Reference: patent publication US11053204B2, “Pyrimidinyloxy benzene derivatives as herbicides” (FMC Corporation, priority 2015, dated 2021)

What was measured:
Assay type in all cases: in vivo
[1] = system: lambsquarters (Chenopodium album); assay: Test C preemergence, plant response rating; conditions: Preemergence
Outline: (§1)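 Preemergence: seeds sown in loam–sand blend or silt loam and sprayed with test chemicals in a non-phytotoxic surfactant-containing solvent. Postemergence: potted plants at 2–18 cm (1–4-leaf stage) sprayed with the same formulation. After 13–15 d in greenhouse, visual rating versus controls on 0 (no effect) to 100 (complete control) scale.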

[2] = system: wheat (winter wheat, Triticum aestivum); assay: Test C preemergence, plant response rating; conditions: Preemergence
Outline: as §1

[3] = system: waterhemp (common waterhemp, Amaranthus rudis); assay: Test C preemergence, plant response rating; conditions: Preemergence
Outline: as §1

[4] = system: nutsedge, yellow (yellow nutsedge, Cyperus esculentus); assay: Test C preemergence, plant response rating; conditions: Preemergence
Outline: as §1

[5] = system: velvetleaf (Abutilon theophrasti); assay: Test C preemergence, plant response rating; conditions: Preemergence
Outline: as §1

[6] = system: morningglory (Ipomoea coccinea); assay: Test C preemergence, plant response rating; conditions: Preemergence
Outline: as §1

[7] = system: barnyardgrass (Echinochloa crus-galli); assay: Test C postemergence, plant response rating; conditions: for Plant response rating, Barnyardgrass: scale 0 to 100; for Barnyardgrass plant response rating: scale 0 to 100 (0 no effect, 100 complete control)
Outline: as §1

[8] = system: ryegrass, Italian (Italian ryegrass, Lolium multiflorum); assay: Test C postemergence, plant response rating; conditions: for Ryegrass, Italian plant response rating: scale 0 to 100 (0 no effect, 100 complete control)
Outline: as §1

[9] = system: crabgrass, large (large crabgrass, Digitaria sanguinalis); assay: Test C postemergence, plant response rating; conditions: for Crabgrass, Large plant response rating: scale 0 to 100 (0 no effect, 100 complete control)
Outline: as §1

[10] = system: kochia (Kochia scoparia); assay: Test A postemergence, visual injury rating; conditions: 0 is no effect, 100 is complete control
Outline: (§2)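 Pre- and postemergence greenhouse screen. Soil: loam + sand. Spray carrier: solvent mixture, non-phytotoxic, with surfactant. Post timing at 1–2 leaves, height 2–10 cm. Readout: visual injury on a 0–100 scale roughly 10 days after application, untreated plants as reference.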

[11] = system: corn (Zea mays); assay: Test A postemergence, visual injury rating; conditions: 0 is no effect, 100 is complete control
Outline: as §2

[12] = system: pigweed (Amaranthus retroflexus); assay: Test A postemergence, visual injury rating; conditions: 0 is no effect, 100 is complete control
Outline: as §2

[13] = system: barnyardgrass (Echinochloa crus-galli); assay: Test A postemergence, visual injury rating; conditions: 0 is no effect, 100 is complete control
Outline: as §2

[14] = system: Italian ryegrass (Lolium multiflorum); assay: Test A postemergence, visual injury rating; conditions: 0 is no effect, 100 is complete control
Outline: as §2

[15] = system: galium (catchweed bedstraw, Galium aparine); assay: Test A postemergence, visual injury rating; conditions: 0 is no effect, 100 is complete control
Outline: as §2

[16] = system: giant foxtail (Setaria faberii); assay: Test A postemergence, visual injury rating; conditions: 0 is no effect, 100 is complete control
Outline: as §2

[17] = system: ragweed (common ragweed, Ambrosia elatior); assay: Test A postemergence, visual injury rating; conditions: 0 is no effect, 100 is complete control
Outline: as §2

[18] = system: wheat (Triticum aestivum); assay: Test A postemergence, visual injury rating; conditions: 0 is no effect, 100 is complete control
Outline: as §2

[19] = system: blackgrass (Alopecurus myosuroides); assay: Test A postemergence, visual injury rating; conditions: 0 is no effect, 100 is complete control
Outline: as §2

[20] = 125 g ai/ha, 0 to 100 scale, approximately 10 days

O=C(CCCC(F)(F)F)c1c(Oc2ncc(Cl)cn2)cccc1C(F)(F)F [Compound 125]
Plant response rating, Lambsquarters ([1]; 125 g ai/ha, scale of 0 to 100): 95
Plant response rating, Lambsquarters ([1]; 31 g ai/ha, scale 0 to 100): 30
Plant response rating, Lambsquarters ([1]; 62 g ai/ha, scale 0 to 100): 60
Plant response rating, Wheat ([2]; 125 g ai/ha, scale of 0 to 100): 5
Plant response rating, Wheat ([2]; 31 g ai/ha, scale 0 to 100): 0
Plant response rating, Wheat ([2]; 62 g ai/ha, scale 0 to 100): 0
Plant response rating, Waterhemp ([3]; 125 g ai/ha, scale of 0 to 100): 100
Plant response rating, Waterhemp ([3]; 31 g ai/ha, scale 0 to 100): 100
Plant response rating, Waterhemp ([3]; 62 g ai/ha, scale 0 to 100): 100
Plant response rating, Nutsedge, Yellow ([4]; 125 g ai/ha, scale of 0 to 100): 5
Plant response rating, Nutsedge, Yellow ([4]; 31 g ai/ha, scale 0 to 100): 0
Plant response rating, Nutsedge, Yellow ([4]; 62 g ai/ha, scale 0 to 100): 0
Plant response rating, Velvetleaf ([5]; 125 g ai/ha, scale of 0 to 100): 65
Plant response rating, Velvetleaf ([5]; 31 g ai/ha, scale 0 to 100): 5
Plant response rating, Velvetleaf ([5]; 62 g ai/ha, scale 0 to 100): 60
Plant response rating, Morningglory ([6]; 125 g ai/ha, scale of 0 to 100): 50
Plant response rating, Morningglory ([6]; 31 g ai/ha, scale 0 to 100): 10
Plant response rating, Morningglory ([6]; 62 g ai/ha, scale 0 to 100): 10
Plant response rating, Barnyardgrass ([7]; 16 g ai/ha): 5
Plant response rating, Barnyardgrass ([7]; 31 g ai/ha): 5
Barnyardgrass plant response rating ([7]; 62 g ai/ha): 5
Barnyardgrass plant response rating ([7]; 125 g ai/ha): 10
Plant response rating, Ryegrass, Italian ([8]; 16 g ai/ha, scale of 0 to 100): 5
Plant response rating, Ryegrass, Italian ([8]; 31 g ai/ha, scale 0 to 100): 5
Ryegrass, Italian plant response rating ([8]; 62 g ai/ha): 10
Ryegrass, Italian plant response rating ([8]; 125 g ai/ha): 15
Plant response rating, Crabgrass, Large ([9]; 16 g ai/ha, scale of 0 to 100): 10
Plant response rating, Crabgrass, Large ([9]; 31 g ai/ha, scale 0 to 100): 10
Crabgrass, Large plant response rating ([9]; 62 g ai/ha): 15
Crabgrass, Large plant response rating ([9]; 125 g ai/ha): 20
Kochia plant response rating [10, 20]: 100
Kochia plant response rating (0 to 100 scale) ([10]; 500 g ai/ha): 100
Corn plant response rating [11, 20]: 10
Corn plant response rating (0 to 100 scale) ([11]; 500 g ai/ha): 30
Pigweed plant response rating [12, 20]: 100
Pigweed plant response rating (0 to 100 scale) ([12]; 500 g ai/ha): 100
Barnyardgrass plant response rating [13, 20]: 30
Barnyardgrass plant response rating (0 to 100 scale) ([13]; 500 g ai/ha): 90
Ryegrass, Italian plant response rating [14, 20]: 20
Ryegrass, Italian plant response rating (0 to 100 scale) ([14]; 500 g ai/ha): 90
Galium plant response rating [15, 20]: 100
Galium plant response rating (0 to 100 scale) ([15]; 500 g ai/ha): 100
Foxtail, Giant plant response rating [16, 20]: 50
Foxtail, Giant plant response rating (0 to 100 scale) ([16]; 500 g ai/ha): 90
Ragweed plant response rating [17, 20]: 30
Ragweed plant response rating (0 to 100 scale) ([17]; 500 g ai/ha): 40
Wheat plant response rating [18, 20]: 20
Wheat plant response rating (0 to 100 scale) ([18]; 500 g ai/ha): 30
Blackgrass plant response rating [19, 20]: 30
Blackgrass plant response rating (0 to 100 scale) ([19]; 500 g ai/ha): 90
